Reference: patent US20240180881A1, “METHODS FOR DECREASING RESISTANCE TO CHEMOTHERAPY” (National Institute of Immunology, priority 2022, published 2024)

Experiments:
[1] = molecular target: T1, RAD54-BLM interaction (Homo sapiens, UniProt Q92698); experiment: In vitro interaction assay, bound GST-BLM WT and soluble His-RAD54 WT; format: binding; details: 10 μM compound
T1 construct: made in house; host or cells: E. coli BL-21 DE3
T1 sequence (Q92698 1-747): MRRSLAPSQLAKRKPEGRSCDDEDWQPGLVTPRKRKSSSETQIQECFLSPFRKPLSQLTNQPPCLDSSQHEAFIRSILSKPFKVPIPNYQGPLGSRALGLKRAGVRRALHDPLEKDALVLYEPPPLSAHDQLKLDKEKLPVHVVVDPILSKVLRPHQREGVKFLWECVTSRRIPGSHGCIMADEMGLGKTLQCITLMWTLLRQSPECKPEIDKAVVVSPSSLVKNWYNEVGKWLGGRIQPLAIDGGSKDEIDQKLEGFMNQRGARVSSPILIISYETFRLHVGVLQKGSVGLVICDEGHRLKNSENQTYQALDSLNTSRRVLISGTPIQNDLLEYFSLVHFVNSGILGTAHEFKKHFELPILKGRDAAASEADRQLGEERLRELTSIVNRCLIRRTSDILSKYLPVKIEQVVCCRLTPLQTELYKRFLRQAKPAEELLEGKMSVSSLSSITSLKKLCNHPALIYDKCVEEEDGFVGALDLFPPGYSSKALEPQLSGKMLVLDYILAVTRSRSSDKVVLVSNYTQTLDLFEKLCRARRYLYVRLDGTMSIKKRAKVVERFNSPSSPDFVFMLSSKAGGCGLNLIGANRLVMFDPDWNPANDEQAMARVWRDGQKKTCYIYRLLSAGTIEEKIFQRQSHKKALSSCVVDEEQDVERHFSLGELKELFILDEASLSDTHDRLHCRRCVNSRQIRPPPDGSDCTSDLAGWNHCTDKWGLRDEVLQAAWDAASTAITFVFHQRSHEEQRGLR
Protocol: (§1) The levels of bound RAD54 were determined by immunoblotting with anti-RAD54 antibody (FIG. 5B). […] (Left) Direct westerns were carried out with antibodies against BLM, RAD54, bActin. (Right) immunoprecipitation (IP) was carried out with anti-BLM antibody. Westerns were carried out with anti-BLM, anti-RAD54 antibodies. The experiment was repeated three times and one representative experiment has been shown (FIG. 11B).
pcDNA3.1 Flag RAD54 was used for coupled in vitro transcription/translation of RAD54 using T7 Quick coupled Transcription/Translation System kit S^35 methionine. Interaction between bound GST-BLM (wildtype or mutants) and radiolabelled RAD54 were carried out as described previously (Gupta et al., 2014). […] 10 μM of the 3 compounds were used in the in vitro interaction assays.

[2] = molecular target: T2, RAD54-BLM interaction in HEK293T cells (Homo sapiens, UniProt Q92698); experiment: In cellulo interaction assay, immunoprecipitation with anti-BLM antibody; format: cell-based; details: 100 nM compound, 72 hours
T2 construct: endogenous in cells; host or cells: HEK293T
T2 sequence (Q92698 1-747): T1 sequence (Q92698 1-747)
Protocol: as §1

[3] = system: HCT116 IC60 CPTR tumors; experiment: siRNA-based ablation in xenograft studies; format: in vivo, SCID mice
Protocol: To determine whether the three key players (MRP2, BLM and RAD54) were indispensable for reverting chemoresistance in colon cancer, siRNA-based ablation in xenograft studies was carried out using SCID mice. Once the tumor volume reached 50 mm^3, either siControl or siRAD54 or siBLM or siMRP2 were injected at the base of the tumor using TAC6 polymer mediated in vivo delivery. The experiment was stopped after 21 days after which the levels of RAD54, BLM, MRP2 transcripts were analyzed by RT-qPCR to validate the downregulation of the cognate genes (FIG. 14A-14C). […] This is probably because of greater retention of CPT inside the tumors and thereby allowing increased chemotherapeutic potential of the drug (FIG. 7B).

Row | Structure (SMILES) | levels of RAD54 bound to GST-BLM WT [1] | RAD54 co-immunoprecipitated with BLM [2] | tumor growth ([3]; siBLM, compound and CPT) | tumor volume ([3]; siControl, compound and CPT compared to only CPT) | tumor development ([3]; siMRP2, compound and CPT)
1 | CC(=O)Nc1nnc(S(N)(=O)=O)s1 [C3, Acetazolamide] | disrupted the RAD54-BLM interaction | disrupted the RAD54-BLM interaction | – | – | –
2 | OCCN(CCO)c1nc(N2CCCCC2)c2nc(N(CCO)CCO)nc(N3CCCCC3)c2n1 [C7, Dipyridamole] | disrupted the RAD54-BLM interaction | disrupted the RAD54-BLM interaction | – | – | –
3 | CN1CCN(C2=Nc3ccccc3Oc3ccc(Cl)cc32)CC1.O=C(O)CCC(=O)O [C17, Loxapine succinate] | – | – | rescued tumor growth | decreased tumor volume | decreased tumor development
